Source: US7534781B2 (DSM IP Assets B.V., priority 2003, dated 2009)

How the values were obtained:
Format in all cases: physicochemical
[1] = Bulk density according to USP 24, method I; details: trihydrate
Text: Preferably, the crystalline powder according to the invention has a bulk density higher than 0.46 g/ml, preferably higher than 0.5 g/ml, more preferably higher than 0.55 g/ml. This further improves the flow properties. Moreover, an increased bulk density is advantageous as crystalline powder may be fed into a certain volume, for instance a capsule. There is no specific upper limit for the bulk density. The bulk density may be less than 0.8 g/ml, for instance less than 0.7 g/ml. The bulk density is preferably determined according to USP 24, method I, (page 1913).
The bulk density was determined according to USP 24, method I, (page 1913).

[2] = Tapped density according to USP 24, method II; details: trihydrate; for Tap. dens. (dt): USP 24, method II; for db*(1/db − 1/dt)*100%: compressibility index from bulk and tapped density
[3] = Particle size distribution (d10, d50) by laser diffraction, Malvern particle sizer 2600 C; details: dry powder, f=300 mm, trihydrate
Text: The d10 and d50 are known ways for indicating a particle size distribution, d50 referring to the value for the particle size such that 50 vol. % of the particles has a particle size smaller than said value. The d50 is also referred to as average volume-based grain size. Likewise, d10 refers to the value for the particle size such that 10 vol. % of the particles has a particle size smaller than said value. A preferred way for determining d10 and d50 is laser diffraction, preferably using Malvern equipment. A suitable apparatus for determining d10 and d50 is a Malvern particle sizer 2600 C obtainable from Malvern Instruments Ltd., Malvern UK, for instance using an objective of f=300 mm and a beam length of 14.30 mm. A polydisperse analysis model may advantageously be used.
The particle size distribution (including d10 and d50) of samples from the mixer was determined using a Malvern particle sizer 2600 C with objective f=300 mm, malvern sample measurement unit PS1 and a Malvern dry powder feeder PS 64. The beam length was 14.30 mm. A polydisperse analysis model was used.

[4] = Dissolution test of capsules, USP 27 amoxicillin capsules, apparatus 1; details: 500 mg (anhydrous basis) in gelatine capsule size 0, 900 ml water, 37° C., 100 rpm
Method: In one aspect of the invention, the crystalline powder according to the invention has a high dissolution rate. Preferably, the crystalline powder according to the invention has a T85% of less than 55 minutes, preferably less than 50 minutes, preferably less than 40 minutes, preferably less than 30 minutes, preferably less than 25 minutes, preferably less than 20 minutes. T85% may for instance be above 5 minutes. […] The determination of T85% is preferably carried out under conditions as defined in USP 27, chapter “amoxicillin capsules”, involving the use of apparatus 1 and applying a stirring rate of 100 rpm (USP 27, paragraph 711). Preferably, samples are taken at regular intervals, e.g. each 5 minutes, to determine the quantity of dissolved amoxicillin by UV absorption.
No auxiliaries were added. Dissolution tests were applied using apparatus 1 under the conditions as described in USP 27 under paragraph “amoxicillin capsules”, including a stirring rate of 100 rpm and a temperature of 37° C. Six beakers each containing 900 ml of water were used. Samples were taken each 5 minutes, and the quantity of dissolved amoxicillin were determined employing UV absorption at the wavelength of maximum absorbance at 272 nm. • 84 wt. % of the amoxicillin was dissolved in 15 minutes. • 90 wt. % of the amoxicillin was dissolved in 20 minutes.

Flow through Klein cup = details: Klein cup 8 mm; overheads fraction after air jet sieving 75 μm
Method: The powder of example V was subjected to air jet sieving (200 LS-N air jet sieve manufactured by Hosakawa Alpine). Sieving was carried out using a 75 μm screen during 10 minutes. A few agglomerates formed during said sieving were removed from the overheads fraction (not passed through the sieve) tusing a vibrating sieve (425 μm), after which tapped density, bulk density, d50, d10 of the resulting crystals of the overheads fraction was determined.

| Structure (SMILES) | Bulk dens. (db) [1] [g/mL] | Tap. dens. (dt) [2] [g/mL] | db*(1/db − 1/dt)*100% [2] [%] | d10 [3] [μm] | d50 [3] [μm] | amoxicillin dissolved ([4]; in 15 minutes) [wt. %] | amoxicillin dissolved ([4]; in 20 minutes) [wt. %] | flow through Klein cup (Flow through Klein cup) |
| --- | --- | --- | --- | --- | --- | --- | --- | --- |
| CC1(C)S[C@@H]2[C@H](NC(=O)[C@H](N)c3ccc(O)cc3)C(=O)N2[C@H]1C(=O)O.O.O.O [Comp. A, amoxicillin trihydrate, reference compound] | 0.26 | 0.55 | 53 | 4.0 | 17 | – | – | – |
| CC1(C)S[C@@H]2[C@H](NC(=O)[C@H](N)c3ccc(O)cc3)C(=O)N2[C@H]1C(=O)O.O.O.O [Ex. I, amoxicillin trihydrate] | 0.51 | 0.73 | 30 | – | – | – | – | – |
| CC1(C)S[C@@H]2[C@H](NC(=O)[C@H](N)c3ccc(O)cc3)C(=O)N2[C@H]1C(=O)O.O.O.O [Ex. II, amoxicillin trihydrate] | 0.56 | 0.78 | 28 | 8.8 | 42.8 | – | – | – |
| CC1(C)S[C@@H]2[C@H](NC(=O)[C@H](N)c3ccc(O)cc3)C(=O)N2[C@H]1C(=O)O.O.O.O [Ex. III, amoxicillin trihydrate] | 0.56 | 0.81 | 31 | 9.9 | 47.8 | – | – | – |
| CC1(C)S[C@@H]2[C@H](NC(=O)[C@H](N)c3ccc(O)cc3)C(=O)N2[C@H]1C(=O)O.O.O.O [Ex. IV, amoxicillin trihydrate] | 0.54 | 0.81 | 33 | 7.0 | 37.0 | 84 | 90 | – |
| CC1(C)S[C@@H]2[C@H](NC(=O)[C@H](N)c3ccc(O)cc3)C(=O)N2[C@H]1C(=O)O.O.O.O [Ex. V, amoxicillin trihydrate] | 0.58 | 0.79 | 26 | 19 | 61 | – | – | – |
| CC1(C)S[C@@H]2[C@H](NC(=O)[C@H](N)c3ccc(O)cc3)C(=O)N2[C@H]1C(=O)O.O.O.O [Ex. VI, amoxicillin trihydrate] | 0.59 | 0.74 | 20 | 36 | 86 | – | – | flows through Klein cup 8 mm |
| CC1(C)S[C@@H]2[C@H](NC(=O)[C@H](N)c3ccc(O)cc3)C(=O)N2[C@H]1C(=O)O.O.O.O [Ref. B, amoxicillin trihydrate, reference compound] | 0.26 | 0.47 | 45 | – | – | – | – | – |
